The values below come from patent US20260048205A1, “SYSTEMS AND METHODS FOR MIXING SYRINGE VALVE ASSEMBLIES AND SYRINGE FORMULATIONS” (Tolmar International Limited, priority 2024, published 2026).

Data set [1] in a line: LA gelation studies. It counts as physicochemical. The settings on record: drug solution in NMP; e-beam irradiated; 60° C., 150 rpm, up to 16 days. On the procedure: Drug solutions were prepared as described above and filled into syringes or glass vials. Syringes were untreated, contained various amounts of silicone, or were plasma coated for lubrication. Samples were irradiated by e-beam irradiation at not less than 25 kGy and stored at accelerated conditions of 60° C. with agitation at 150 rpm for up to 16 days. Samples were inspected periodically to determine if the drug solution remained a solution or had formed a solid/gel by an inversion test. Samples that had “gelled” were transferred to 5° C. for subsequent testing. The gelation rate for each sample was calculated as Rate=1/(simulated 5° C. age at time of gelation in days). The Arrhenius equation was used to determine the simulated age, assuming standard reaction rate doubling for every 10° C. increase in temperature. […] Data was analyzed using JMP. […] Container type and lubrication were not significant. Samples were tested for leuprolide content by HPLC. Leuprolide content was then converted to leuprolide acetate by multiplying by 1.078 (based on molecular mass ratios). A marked difference in leuprolide acetate content between the gelled and non-gelled samples was seen, with the tipping point between solution and solid/gelled samples occurring at about 45% LA.

Data set [2] is classed as physicochemical. An excerpt:
To produce the drug/solvent bulk solution comprising the API (LA), the desired amount of the LA was combined with the solvent N-methyl-2-pyrrolidone (NMP), in the indicated amounts (see individual experiments below). The API and solvent were combined in a glass vial or jar. Jars were mixed using the jar mill, Turbula, or shaker at room temperature until homogeneous. LA is soluble in NMP and can load higher concentrations (at least 40% w/w). After dissolving the API in the organic solvent, the bulk solution was manually filled into syringes and capped with a tip cap. The syringes used for filling were either 1.2 mL male polypropylene syringes, 1.2 mL male cyclic olefin copolymer syringes or 1 mL male cyclic olefin copolymer syringes. In some instances, the two syringes were coupled via the connector prior to packaging. Filled syringes were then packaged in labeled foil pouches or a plastic tray pack with foil lid with a Syringe A (polymer-solvent solution) and a desiccant pack and the pouches were sealed. After filling the syringes with the formulations, they were terminally sterilized with an external radiation dose of more than 15 kGy and less than 60 kGy from irradiation processing (E-beam, Gamma or X-ray). After terminal sterilization, the syringes were stored under refrigerated conditions (e.g., 2-8° C.) or accelerated conditions (>25° C. see individual experiments).

Structures are written as SMILES.

In the case of `CCNC(=O)[C@@H]1CCCN1C(=O)[C@H](CCCNC(=N)N)NC(=O)[C@H](CC(C)C)NC(=O)[C@@H](CC(C)C)NC(=O)[C@H](Cc1ccc(O)cc1)NC(=O)[C@H](CO)NC(=O)[C@H](Cc1c[nH]c2ccccc12)NC(=O)[C@H](Cc1c[nH]cn1)NC(=O)[C@@H]1CCC(=O)N1` [LA, leuprolide acetate], the “tipping point between solution and solid/gelled samples” value in data set [1] is listed as “about 45 % LA”. In data set [2], the “solubility / loading in NMP” value was “at least 40 % w/w”.
